Article PMC5489165, “Identification of benzazole compounds that induce HIV-1 transcription” (PLoS ONE, 2017)

Key:
[1] = Protein binding, mouse plasma (ultrafiltration); type: in vitro ADME; settings: pH 7.4
Experimental: Binding of test compound to plasma proteins was estimated by incubation of test compounds with mouse or human plasma. Human plasma was obtained from BioreclamationIVT (Westbury, NY). […] After a 15 min incubation at 37°C, triplicate aliquots of the incubation mixtures were transferred to a Millipore Multiscreen Ultracel-10 filter plate (10 kDa molecular mass cut off, EMD Millipore, Billerica, MA). The plate was centrifuged for 60 min at 3000 × g and 37°C. After centrifugation, aliquots of both the ultrafiltrates as well as the incubation mixtures prior to ultrafiltration were analyzed by LC-MS/MS to quantify the concentrations of test compound and reference compounds.

[2] = test system: HIV-1 transcription in 24STNLSG cells; assay: SEAP assay in 24STNLSG cells (latency reactivation); type: cell-based; settings: for EC2X, 24STNLSG: concentration for 2-fold increase in SEAP activity; for Activity in 24STNLSG cells (in words): structure-activity
Experimental: SupT1-derived 24STNLSG cells were plated at 100,000 cells/well in black bottom/black walled 96-well plates in 50 μl RPMI-1640 medium (without phenol red) containing 10% FBS. Compound was added in 50 μl of identical medium using three-fold dose-response dilutions, in duplicate. […] TNF-α, a nuclear factor-κB (NF-κB) activator known to induce HIV- expression in cellular models, was used as a positive control. Plates were incubated for 72 h at 37°C, 5% CO2. Plates were then sealed and heated to 65°C for 30 min. Plates were brought to room temperature and 50 μl assay buffer (1 mM MgCl2, 10 mM L-homoarginine, 1 M diethylamine hydrochloride) was added to each well and incubated for 5 min at room temperature. To each well, 50 μl of CSPD Substrate (0.4 mM Ready-to-Use with Sapphire-II Enhancer; Applied Biosystems, Foster City, CA) was added. Plates were incubated for 20 min at room temperature and read on a ViewLux microplate imager (Perkin Elmer, Waltham, MA). Curves were fit by non-linear regression using Prism software (GraphPad, San Diego, CA).

[3] = Cytotoxicity assay in SupT1 cells (ATP, CellTiter-Glo); type: cell-based; settings: human, SupT1 cells; ATP quantification; 72 h; read-out: CC50, SupT1
Experimental: SupT1 cells were plated at 100,000 per well in 96-well, white-walled plates with serial dilutions of test compound in a total volume of 100 μl RPMI-1640 medium containing 10% FBS and 0.5% DMSO. PBMCs were plated similarly at 50,000 cells/well and stimulated by addition of 40 μg/ml PHA and 80 ng/ml interleukin-2 (IL-2). Cells were incubated for 72 h at 37°C, 5% CO2. ATP was quantified using the CellTiter-Glo Luminescent Cell Viability Assay (Promega, Madison, WI) on a ViewLux microplate imager (Perkin Elmer, Waltham, MA). Percent cytotoxicity was determined relative to vehicle-only treated wells.

[4] = Microsome assay, human liver microsomes; type: in vitro ADME
Experimental: (§1) Human and mouse liver microsomes were obtained from XenoTech, LLC (Kansas City, KS). The reaction mixture was composed of liver microsomes (0.5 mg/mL), 20 mM Tris-HCl pH 7.4, 2.5 mM MgCl2, and an NADPH generating system (0.1 mM NADP, 1.2 mM glucose-6-phosphate and 0.3 units/ml glucose-6-phophate dehydrogenase). […] Test compounds were added to the microsome reaction and loss of parent molecule was monitored after 1 h by LC/MS/MS.

[5] = Microsome assay, mouse liver microsomes; type: in vitro ADME
Experimental: as §1

[6] = test system: HIV-1 Gag (p24) in ACH-2 cells; assay: Intracellular staining for HIV Gag in ACH-2 cells (flow cytometry); type: cell-based; settings: 16 h, 30 μM Cmpd 1 or Cmpd 2, 10 μM SAHA, 1 mM JQ1 or 10 ng/ml PMA, single experiment (Fig 4A)
Experimental: ACH-2 cells were treated as indicated and HIV-1 expression was monitored by intracellular staining for p24. Approximately, 1 × 10^6 cells were collected and washed in PBS before fixing by resuspending in 100 μl of BD Cytofix/Cytoperm (BD Biosciences, San Jose, CA) at 4°C for at least 20 min. Cells were then harvested by centrifugation and resuspended in 100 μl BD PermWash (50 mM NH4Cl, 5 mM EDTA, 0.1% saponin, 0.5% BSA, PBS and 1 mg/ml of anti-HIV-Gag PE (Clone KC57, Beckman Coulter, Brea CA). Cells were stained for 30 min, washed with the PermWash, and resuspended in FACS buffer (2 mM EDTA, 0.5% BSA, 1% paraformaldehyde in PBS). Cells were analyzed by flow cytometry using a FACSCalibur instrument (BD Biosciences). Flow cytometry was performed at the Boston University School of Medicine flow cytometry core.
Fig 4 Induction of HIV-1 expressing cells following treatment with latency reversing agents. ACH-2 cells were not treated or treated with a final concentration of 30 μM Cmpd 1 or Cmpd 2, 10 μM SAHA, 1 mM JQ1 or 10 ng/ml PMA for 16 h. Cells were stained using anti-HIV-Gag-PE and analyzed by flow cytometry. Numbers within the profiles represent the percentage of positive cells. These profiles are from a single experiment. B) Data from four independent experiments. Y-axis is mean of % p24 positive cells. * Cmpd 1 p-value […] compared to other treatments using a two-tailed t-test. TEXT PRINTED IN THE PICTURE: (A) Cmpd 1: Intracellular Gag: 65.6% | (A) Cmpd 2: Intracellular Gag: 33.9% | (A) SAHA: Intracellular Gag: 23.0% | (A) JQ1: Intracellular Gag: 16.7% | (A) PMA: Intracellular Gag: 94.2%

IL-2 secretion by PBMCs = assay: IL-2 ELISA in PBMCs; type: cell-based, human; settings: 24 h
Experimental: Cryopreserved PBMCs from a single donor were thawed in RPMI-1640 plus 10% FBS. PBMCs were plated at 5×10^4/well in 96-well plates and compound was added with a final concentration of 0.5% DMSO. Plates were incubated for 24 h at 37°C, 5% CO2. Interleukin-2 was quantified using Human IL-2 DuoSet ELISA (R&D Systems, Minneapolis, MN). Raw data were converted to ng/ml IL-2 using a standard curve obtained in parallel.

[7] = test system: Kaposi's sarcoma associated herpesvirus (KSHV) in BCP-1 cells; assay: KSHV activation assay in BCP-1 cells (ORF50 qRT-PCR); type: cell-based; settings: 24 h, concentrations as low as 0.014 ng/ml
[8] = test system: Epstein-Barr virus (EBV) in Raji cells; assay: EBV activation assay in Raji cells (BZLF1 qRT-PCR); type: cell-based; settings: Raji cells, 24 h, concentrations as low as 0.014 ng/ml
[9] = Protein binding, human plasma (ultrafiltration); type: in vitro ADME; settings: human plasma, 10 μM, pH 7.4
[10] = test system: NF-κB response element reporter in Jurkat cells; assay: NF-κB-responsive Fluc reporter in Jurkat cells; type: cell-based, human; settings: stably-transfected Jurkat cells, 4 h
Text: The vector pGL4.32[luc2P/NF-κB-RE/Hygro] was purchased from Promega (Madison, WI), encoding 5 copies of a NF-κB response element driving expression of synthetic firefly luciferase gene, luc2, including a PEST destabilization sequence. Jurkat cells were transfected with this vector using a Gene Pulser® II (Biorad, Hercules, CA) with a 0.4 cm gap cuvette at 0.2 kV and 960 μF. Cells were allowed to recover for three days in RPMI-1640 with 10% FBS and 1% penicillin/streptomycin before selection with 200 μg/ml Hygromycin B for one month. Pooled, stably-transfected cells were plated at 50,000/well in 96-well plates and treated with test compounds in a final concentration of 0.5% DMSO for 4 h at 37°C. Luciferase activity was determined by adding one volume 2× steadylite plus reagent (Perkin Elmer, Waltham, MA) and reading on a ViewLux microplate imager.

HIV-1 LTR = assay: HIV LTR-driven Rluc reporter in HeLa cells; type: cell-based; settings: transfected HeLa cells, 24 h
Text: The vector pGL4.77[hRlucP/Hygro] encoding a Renilla luciferase gene including a PEST destabilization sequence, was purchased from Promega (Madison, WI). HIV-1 cDNA was generated from HIVIIIB virus using PureLink® Viral RNA/DNA Mini Kit (Invitrogen). The HIV-1 core promoter region (nucleotides -105 to 60) was amplified from HIVIIIB cDNA using primers designed with NheI (forward: 5ʹ-GCTAGCGGGACTTTCCGCTGGG-3ʹ) and XhoI (reverse: 5ʹ-CTCGAGAGTGGGTTCCCTAGTTAGCCA-3ʹ) flanking restriction site sequences. DNA fragments were generated using Platinum® Taq DNA Polymerase High Fidelity (Invitrogen) and fragment size was verified by electrophoresis using E-Gel® 1.2% agarose (Invitrogen). Fragments were cloned into pCR™2.1 TOPO® (Invitrogen), transformed into One Shot® TOP10 Chemically Competent E. coli (Invitrogen), and selected on LB-agar plates containing 100 μg/ml ampicillin. Individual colonies were grown in LB broth, DNA was isolated using QIAprep® Spin Miniprep Kit (Qiagen), and the inserted fragment was verified by EcoRI digestion followed by electrophoresis using E-Gel® 1.2% agarose (Invitrogen). To insert the HIV-1 LTR into the vector multiple cloning region, the resultant plasmids and pGL4.77[hRlucP/Hygro] were dually digested with NheI and XhoI (New England Biolabs), ligated using ExpressLink™ T4 DNA Ligase (Invitrogen), transformed into One Shot® TOP10 Chemically Competent E. coli (Invitrogen), and selected on LB-agar plates containing 100 μg/ml ampicillin. Clones were picked and DNA isolated using QIAprep® Spin Miniprep Kit (Qiagen) and the inserted fragment was verified by NheI/XhoI digestion followed by electrophoresis using E-Gel® 1.2% agarose (Invitrogen). The resultant plasmid, pGL4.77-LTR, was verified by sequencing at GENEWIZ (South Plainfield, NJ). […] Luciferase activity was quantified using Renilla Luciferase Assay System (Promega, Madison, WI) and results were normalized to the vehicle-treated control.

Molecule: CC(=O)CC(c1ccccc1)c1c(O)c2ccccc2oc1=O (racemic) [Warfarin, (RS)-warfarin, reference compound]
- fraction unbound at 15 min, 10 μM ([1]; mouse, plasma): 0.047

Molecule: Nc1ccc2[nH]c(-c3ccc(-c4nc5c(N)cccc5o4)cc3)nc2c1 [Compound 3]
- Max. fold induction, 24STNLSG ([2]; SEAP reporter, 72 h): 3 fold
- EC2X, 24STNLSG ([2]; 72 h): 3.7 µM
- CC50 at 72 h [3]: 8.8 µM

Molecule: Cn1c(-c2ccc(-c3nc4cc(N)ccc4o3)cc2)nc2cc(N)ccc21 [Compound 4]
- EC2X, 24STNLSG ([2]; 72 h): >100 µM
- Activity in 24STNLSG cells (in words) [2]: complete loss of activity
- CC50 at 72 h [3]: > 100 µM

Molecule: Nc1ccc2oc(-c3ccc(-c4nc5cc(N)ccc5o4)cc3)nc2c1 [Compound 5]
- EC2X, 24STNLSG ([2]; 72 h): >100 µM
- Activity in 24STNLSG cells (in words) [2]: inactive
- CC50 at 72 h [3]: > 100 µM

Molecule: Nc1ccc2[nH]c(-c3ccc(-c4nc5cc(N)ccc5[nH]4)cc3)nc2c1 [Compound 6]
- EC2X, 24STNLSG ([2]; 72 h): >100 µM
- Activity in 24STNLSG cells (in words) [2]: inactive
- CC50 at 72 h [3]: > 100 µM

Molecule: CC(C)N(CCC(C(N)=O)(c1ccccc1)c1ccccn1)C(C)C (stereo not shown) [Disopyramide, reference compound]
- HLM stability (% loss of parent compound at 1 h) [4]: 9%
- MLM stability (% loss of parent compound at 1 h) [5]: 12%

Molecule: Cc1sc2c(c1C)C(c1ccc(Cl)cc1)=N[C@@H](CC(=O)OC(C)(C)C)c1nnc(C)n1-2 [JQ1, reference compound]
- Intracellular Gag, percentage of positive cells [6]: 16.7%

Molecule: CCCCCCCCCCCCCC(=O)O[C@@H]1[C@@H](C)[C@@]2(O)[C@@H](C=C(CO)C[C@]3(O)C(=O)C(C)=C[C@@H]23)[C@@H]2C(C)(C)[C@]12OC(C)=O [PMA, phorbol 12-myristate 13-acetate, reference compound]
- Intracellular Gag, percentage of positive cells [6]: 94.2%
- IL-2 secretion by PBMCs (in words) (IL-2 secretion by PBMCs): induced high levels of IL-2
- Stimulation of ORF50 mRNA (KSHV) [7]: > 35 fold
- Stimulation of BLZF1 mRNA (EBV) [8]: > 35 fold

Molecule: CC(C)NCC(O)COc1cccc2ccccc12 (stereo not shown) [Propanolol, propranolol, reference compound]
- % Plasma protein binding (human) [9]: 74.3%
- % Plasma protein binding (mouse) ([1]; mouse plasma, 10 μM): 73.8%

Molecule: O=C(CCCCCCC(=O)Nc1ccccc1)NO [SAHA, Suberanilohydroxamic acid, reference compound]
- Intracellular Gag, percentage of positive cells [6]: 23.0%

Molecule: TNF-α
- Induction of NF-κB driven reporter (in words) [10]: strongly induced this reporter
- Transcription driven by the HIV-1 LTR (in words) (HIV-1 LTR): significantly increased expression of this reporter
